In the test the test system is Human subcutaneous preadipocytes. Kind of test: Adipocyte differentiation assay: inhibition of adipogenesis, glycerol liberated from triglyceride (Zen-Bio). The conditions noted are these: for adipogenesis: inhibition in presence of 1 uM Rosiglitazone, OD at 540 nm, glycerol liberated from triglyceride, FIGS. 2 and 3. Format: cell-based. The protocol:
Conjugated linoleic acid and resveratrol were tested for their ability to promote the appearance of decreased volume. Cell culture, treatment, and differentiation assay was performed by Zen-Bio, RTF, NC. Human subcutaneous preadipocytes, lot number: were cultured in 96-well plates. The donor information is as follows: • Lot #: L061103 • […] • […] • B.M.I.: 25.2 Stimulation was treated in the presence of 0.1 uM Rosiglitazone Maleate. Inhibition was treated in the presence of 1.0 uM Rosiglitazone Maleate. Day 1: Plated cells and allowed cells to adhere. Day 2: Changed medium to Initiation medium containing the compounds or controls. Day 5: Changed medium to Adipocyte medium with the compounds. Day 8: Changed medium to Adipocyte medium with the compounds. Day 11: Changed medium to Adipocyte medium with the compounds. Day 13: Cells were washed with PBS and lysed with the lysis buffer. Reagent B was added to each well and the cells were incubated at 37° C. for 2 hours. Aliquots of the lysates were diluted with PBS, then Reagent A was added to each well. The optical density was read at 540 nm after 15 minutes. The reagent measures the amount of glycerol liberated from triglyceride. Data were analyzed using a one-way ANOVA and significant means were tested by Bonferroni multiple comparison test using Instat software. Cell culture, treatment, and differentiation assay was performed by Zen-Bio, RTF, NC. Human subcutaneous preadipocytes, lot number: were cultured in 96-well plates. The donor information is as follows: • Lot#: SL0029 • Gender: Female (all lots) […] ([…]) Human subcutaneous preadipocytes were cultured in 96-well plates. Day 1: Plated cells and allowed cells to adhere. Day 2: Changed medium to Differentiation medium containing the compounds or controls. (0.1 uM Rosi for stimulation or 1 uM Rosi for inhibition) Day 9: Changed medium to Adipocyte medium plus compounds. Day 12: Changed medium to Adipocyte medium plus compounds. Day 16: Cells were washed with PBS and lysed with the lysis buffer. […] The optical density was read at 540 nm after 15 minutes. […]

As for `Oc1ccc(C=Cc2cc(O)cc(O)c2)cc1` [resveratrol], the adipogenesis result is “effective in reducing adipogenesis”. Further, the human adipocyte generation result (after treatment with resveratrol, FIG. 2 legend) was “decrease in human adipocyte generation”.

For conjugated linoleic acid, the adipogenesis entry was “effective in reducing adipogenesis”.

The values are drawn from US20160354303A1, “Method, Compositions, And Kit For Modulating The Appearance Of Volume On Keratin Surfaces” (ELC MANAGEMENT LLC, priority 2014, published 2016).
